The subject of one experiment is F35T cells. The experiment can be described thus: Foci reduction in FECD (CAG10-Cy3 FISH, foci per nucleus). The format is cell-based. Conditions: F35T cells, 48 h treatment, foci per nucleus; read-out: FECD EC50, 48 h. Put shortly:
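Foci per nucleus were counted by imaging after overnight CAG10-Cy3 FISH at 37 °C (30% formamide, 2×SSC) with DAPI counterstain, on PFA-fixed, ethanol-permeabilized F35T cells. The cells, seeded at 5000 per well in supplemented Opti-MEM, had received 8-point compound dilutions for 48 h at 37 °C.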

Experiment [1] concerns Myotonic Dystrophy 1 affected patient fibroblasts (Coriel GM04602; 1600 CTG repeats). The experiment can be described thus: DM1 foci reduction assay (EC50 assay; CAG10-Cy3 FISH, foci per nucleus). The settings on record: Homo sapiens, Fibroblast; DM1 patient fibroblasts, 48 h treatment, foci per nucleus; read-out: DM1 EC50, 48 h. The format is cell-based. Put shortly: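 Foci per nucleus counted by 20× imaging of 4 areas per well, after overnight FISH with 5 nM CAG10-Cy3 and DAPI staining of fixed, permeabilized cells. DM1 fibroblasts (GM04602, 1600 CTG) were dosed 48 h at 37 °C, 8 points, 3-fold dilutions, 3 μM top concentration.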

By EC50 is commonly meant the concentration at which the effect is half-maximal. As for `Cn1cc(NC(=O)c2nc(NC(=O)CCNC(=O)c3cc(NC(=O)c4nccn4C)cn3C)cn2C)cc1C(=O)NCCCC(=O)Nc1cn(C)c(C(=O)NCCC(=O)Nc2cc(C(=O)Nc3cn(C)c(C(=O)NCCCNCC#Cc4cccc(C(=O)O)c4)n3)n(C)c2)n1` [Compound B-248], the EC50 with F35T cells is under 100 nM; in experiment [1], 100 to 500 nM.

Consider `Cn1cc(NC(=O)c2nc(NC(=O)CCNC(=O)c3cc(NC(=O)c4nccn4C)cn3C)cn2C)cc1C(=O)NCCCC(=O)Nc1cn(C)c(C(=O)NCCC(=O)Nc2cc(C(=O)Nc3cn(C)c(C(=O)NCCCNCC#Cc4ccc(C(=O)O)cc4)n3)n(C)c2)n1` [Compound B-249], for which the results for the EC50 (in the experiment with F35T cells; in experiment [1]) were under 100 nM and 100 to 500 nM, respectively.

Regarding `CC(=O)N1CCC(C#CC#CC2CCN(CCCNC(=O)c3nc(NC(=O)c4cc(NC(=O)CCNC(=O)c5nc(NC(=O)CCCNC(=O)c6cc(NC(=O)c7nc(NC(=O)CCNC(=O)c8cc(NC(=O)c9nccn9C)cn8C)cn7C)cn6C)cn5C)cn4C)cn3C)CC2)CC1` [Compound B-251], the EC50 (in the experiment on F35T cells; in experiment [1]) was under 100 nM each time.

On to `CN(CCCNC(=O)c1cccc(C(=O)O)c1)CCCNC(=O)c1cc(NC(=O)CCNC(=O)c2nc(NC(=O)CCCNC(=O)c3cc(NC(=O)c4nc(NC(=O)CCNC(=O)c5cc(NC(=O)c6nccn6C)cn5C)cn4C)cn3CCCCCCN=[N+]=[N-])cn2C)cn1C` [Compound B-253], for which the EC50 (in the experiment with F35T cells; in experiment [1]) was over 1000 nM each time.

Regarding `Cn1cc(NC(=O)c2nccn2C)cc1C(=O)NCCC(=O)Nc1cn(C)c(C(=O)Nc2cc(C(=O)NCCCC(=O)Nc3cn(C)c(C(=O)NCCC(=O)Nc4cc(C(=O)Nc5cn(C)c(C(=O)NCCC(=O)N6CCC(C#CC#CC7CCNCC7)CC6)n5)n(C)c4)n3)n(CCCCCCN)c2)n1` [Compound B-256], the half-maximal effective concentration (EC50) (with F35T cells; in experiment [1]) was 100 to 500 nM in each case.

`COCCOCCOCCOCCN(CCCCCn1cc(NC(=O)c2nc(NC(=O)CCNC(=O)c3cc(NC(=O)c4nccn4C)cn3C)cn2C)cc1C(=O)NCCCC(=O)Nc1cn(C)c(C(=O)NCCC(=O)Nc2cc(C(=O)Nc3cn(C)c(C(=O)NCCC(=O)N4CCC(C#CC#CC5CCN(C(C)=O)CC5)CC4)n3)n(C)c2)n1)CCOCCOCCOCCOC` [Compound B-257]: the EC50 (in the experiment with F35T cells; in experiment [1]) was 100 to 500 nM each time.

As to `COCCOCCOCCOCCN(CCCCCn1cc(NC(=O)c2nc(NC(=O)CCNC(=O)c3cc(NC(=O)c4nccn4C)cn3C)cn2C)cc1C(=O)NCCCC(=O)Nc1cn(C)c(C(=O)NCCC(=O)Nc2cc(C(=O)Nc3cn(C)c(C(=O)NCCC(=O)N4CCC(C#CC#CC5CCNCC5)CC4)n3)n(C)c2)n1)CCOCCOCCOCCOC` [Compound B-258], the EC50 (in the experiment with F35T cells; in experiment [1]) was 500 to 1000 nM throughout.

In the case of `COCCOCCOCCOCCN(CCOCCOCCOCCOC)C(=O)CCCCn1cc(NC(=O)c2nc(NC(=O)CCNC(=O)c3cc(NC(=O)c4nccn4C)cn3C)cn2C)cc1C(=O)NCCCC(=O)Nc1cn(C)c(C(=O)NCCC(=O)Nc2cc(C(=O)Nc3cn(C)c(C(=O)NCCC(=O)N4CCC(C#CC#CC5CCNCC5)CC4)n3)n(C)c2)n1` [Compound B-260], the EC50 (in the experiment on F35T cells; in experiment [1]) was 100 to 500 nM in each case.

Turning to `CN(CCCC#Cc1cccc(C(=O)O)c1)CCCNC(=O)c1nc(NC(=O)c2cc(NC(=O)CCNC(=O)c3nc(NC(=O)CCCNC(=O)c4cc(NC(=O)c5nc(NC(=O)CCNC(=O)c6cc(NC(=O)c7nccn7C)cn6C)cn5C)cn4C)cn3C)cn2C)cn1C` [Compound B-263], the EC50 was under 100 nM in the experiment with F35T cells and 100 to 500 nM in experiment [1].

On to `CCCNC(=O)CCNC(=O)c1nc(NC(=O)c2cc(NC(=O)CCNC(=O)c3nc(NC(=O)CCCNC(=O)c4cc(NC(=O)c5nc(NC(=O)CCNC(=O)c6cc(NC(=O)c7nccn7C)cn6C)cn5C)cn4CCN=[N+]=[N-])cn3C)cn2C)cn1C` [Compound B-264], for which the 50% effective concentration (EC50) (in the experiment with F35T cells; in experiment [1]) was under 100 nM each time.

For the compound `CCCNC(=O)CCNC(=O)c1nc(NC(=O)c2cc(NC(=O)CCNC(=O)c3nc(NC(=O)CCCNC(=O)c4cc(NC(=O)c5nc(NC(=O)CCNC(=O)c6cc(NC(=O)c7nccn7C)cn6C)cn5C)cn4CCN)cn3C)cn2C)cn1C` [Compound B-265], the EC50 (with F35T cells; in experiment [1]) was 100 to 500 nM in each case.

For `CC(=O)N1CCC(C#CC#CC2CCN(C(=O)CCNC(=O)c3nc(NC(=O)c4cc(NC(=O)CCNC(=O)c5nc(NC(=O)CCCNC(=O)c6cc(NC(=O)c7nc(NC(=O)CCNC(=O)c8cc(NC(=O)c9nccn9C)cn8C)cn7C)cn6CCN)cn5C)cn4C)cn3C)CC2)CC1` [Compound B-266], the EC50 (in the experiment on F35T cells; in experiment [1]) was under 100 nM throughout.

On to `Cn1cc(NC(=O)c2nccn2C)cc1C(=O)NCCC(=O)Nc1cn(C)c(C(=O)Nc2cc(C(=O)NCCCC(=O)Nc3cn(C)c(C(=O)NCCC(=O)Nc4cc(C(=O)Nc5cn(C)c(C(=O)NCCC(=O)N6CCC(C#CC#CC7CCNCC7)CC6)n5)n(C)c4)n3)n(CCN)c2)n1` [Compound B-267], for which the half-maximal effective concentration (EC50) (in the experiment on F35T cells; in experiment [1]) was under 100 nM each time.

In the case of `CCCNC(=O)CCNC(=O)c1nc(NC(=O)c2cc(NC(=O)CCNC(=O)c3nc(NC(=O)CCCNC(=O)c4cc(NC(=O)c5nc(NC(=O)CCNC(=O)c6cc(NC(=O)c7nccn7C)cn6C)cn5C)cn4CCNC(C)=O)cn3C)cn2C)cn1C` [Compound B-268], the EC50 was under 100 nM with F35T cells and 100 to 500 nM in experiment [1].

For the compound `CC(=O)NCCn1cc(NC(=O)c2nc(NC(=O)CCNC(=O)c3cc(NC(=O)c4nccn4C)cn3C)cn2C)cc1C(=O)NCCCC(=O)Nc1cn(C)c(C(=O)NCCC(=O)Nc2cc(C(=O)Nc3cn(C)c(C(=O)NCCC(=O)N4CCC(C#CC#CC5CCN(C(C)=O)CC5)CC4)n3)n(C)c2)n1` [Compound B-269], the concentration giving a half-maximal response (EC50) in the experiment with F35T cells is under 100 nM; in experiment [1], 100 to 500 nM.

For the compound `CC(=O)NCCn1cc(NC(=O)c2nc(NC(=O)CCNC(=O)c3cc(NC(=O)c4nccn4C)cn3C)cn2C)cc1C(=O)NCCCC(=O)Nc1cn(C)c(C(=O)NCCC(=O)Nc2cc(C(=O)Nc3cn(C)c(C(=O)NCCC(=O)N4CCC(C#CC#CC5CCNCC5)CC4)n3)n(C)c2)n1` [Compound B-270], the concentration for a half-maximal effect (EC50) in the experiment on F35T cells was 500 to 1000 nM; in experiment [1], over 1000 nM.

Consider `CCCNC(=O)CCNC(=O)c1nc(NC(=O)c2cc(NC(=O)CCNC(=O)c3nc(NC(=O)CCCNC(=O)c4cc(NC(=O)c5nc(NC(=O)CCNC(=O)c6cc(NC(=O)c7nccn7C)cn6C)cn5C)cn4CCCN=[N+]=[N-])cn3C)cn2C)cn1C` [Compound B-271], for which the half-maximal effective concentration (EC50) (in the experiment with F35T cells; in experiment [1]) was under 100 nM throughout.

For the compound `CCCNC(=O)CCNC(=O)c1nc(NC(=O)c2cc(NC(=O)CCNC(=O)c3nc(NC(=O)CCCNC(=O)c4cc(NC(=O)c5nc(NC(=O)CCNC(=O)c6cc(NC(=O)c7nccn7C)cn6C)cn5C)cn4CCCN)cn3C)cn2C)cn1C` [Compound B-272], the half-maximal effective concentration (EC50) with F35T cells was under 100 nM; in experiment [1], 100 to 500 nM.

With `CCCNC(=O)CCNC(=O)c1nc(NC(=O)c2cc(NC(=O)CCNC(=O)c3nc(NC(=O)CCCNC(=O)c4cc(NC(=O)c5nc(NC(=O)CCNC(=O)c6cc(NC(=O)c7nccn7C)cn6C)cn5C)cn4CCCCN=[N+]=[N-])cn3C)cn2C)cn1C` [Compound B-278], the EC50 (in the experiment with F35T cells; in experiment [1]) was under 100 nM throughout.

With `CCCNC(=O)CCNC(=O)c1nc(NC(=O)c2cc(NC(=O)CCNC(=O)c3nc(NC(=O)CCCNC(=O)c4cc(NC(=O)c5nc(NC(=O)CCNC(=O)c6cc(NC(=O)c7nccn7C)cn6C)cn5C)cn4CCCCN)cn3C)cn2C)cn1C` [Compound B-279], the EC50 (in the experiment on F35T cells; in experiment [1]) was under 100 nM in each case.

For the compound `CC(=O)N1CCC(C#CC#CC2CCN(C(=O)CCNC(=O)c3nc(NC(=O)c4cc(NC(=O)CCNC(=O)c5nc(NC(=O)CCCNC(=O)c6cc(NC(=O)c7nc(NC(=O)CCNC(=O)c8cc(NC(=O)c9nccn9C)cn8C)cn7C)cn6CCCCN)cn5C)cn4C)cn3C)CC2)CC1` [Compound B-280], the concentration giving a half-maximal response (EC50) (in the experiment on F35T cells; in experiment [1]) was under 100 nM each time.

Turning to `Cn1cc(NC(=O)c2nccn2C)cc1C(=O)NCCC(=O)Nc1cn(C)c(C(=O)Nc2cc(C(=O)NCCCC(=O)Nc3cn(C)c(C(=O)NCCC(=O)Nc4cc(C(=O)Nc5cn(C)c(C(=O)NCCC(=O)N6CCC(C#CC#CC7CCNCC7)CC6)n5)n(C)c4)n3)n(CCCCN)c2)n1` [Compound B-281], the concentration for a half-maximal effect (EC50) (with F35T cells; in experiment [1]) was under 100 nM in each case.

In the case of `CCCNC(=O)CCNC(=O)c1nc(NC(=O)c2cc(NC(=O)CCNC(=O)c3nc(NC(=O)CCCNC(=O)c4cc(NC(=O)c5nc(NC(=O)CCNC(=O)c6cc(NC(=O)c7nccn7C)cn6C)cn5C)cn4CCCCNC(C)=O)cn3C)cn2C)cn1C` [Compound B-282], the EC50 with F35T cells is under 100 nM; in experiment [1], 100 to 500 nM.

For `CC(=O)NCCCCn1cc(NC(=O)c2nc(NC(=O)CCNC(=O)c3cc(NC(=O)c4nccn4C)cn3C)cn2C)cc1C(=O)NCCCC(=O)Nc1cn(C)c(C(=O)NCCC(=O)Nc2cc(C(=O)Nc3cn(C)c(C(=O)NCCC(=O)N4CCC(C#CC#CC5CCN(C(C)=O)CC5)CC4)n3)n(C)c2)n1` [Compound B-283], the results for the EC50 (in the experiment with F35T cells; in experiment [1]) were under 100 nM and 500 to 1000 nM, respectively.

Take `CC(=O)NCCCCn1cc(NC(=O)c2nc(NC(=O)CCNC(=O)c3cc(NC(=O)c4nccn4C)cn3C)cn2C)cc1C(=O)NCCCC(=O)Nc1cn(C)c(C(=O)NCCC(=O)Nc2cc(C(=O)Nc3cn(C)c(C(=O)NCCC(=O)N4CCC(C#CC#CC5CCNCC5)CC4)n3)n(C)c2)n1` [Compound B-284]: the EC50 (with F35T cells; in experiment [1]) was under 100 nM throughout.

As for `CCCNC(=O)CCNC(=O)c1nc(NC(=O)c2cc(NC(=O)CCNC(=O)c3nc(NC(=O)CCCNC(=O)c4cc(NC(=O)c5nc(NC(=O)CCNC(=O)c6cc(NC(=O)c7nccn7C)cn6C)cn5C)cn4CCCCCN=[N+]=[N-])cn3C)cn2C)cn1C` [Compound B-285], the EC50 (with F35T cells; in experiment [1]) was under 100 nM throughout.

The values are drawn from patent publication US20250368628A1, “METHODS AND COMPOUNDS FOR MODULATING INHERITED GENETIC DISEASES” (Design Therapeutics, Inc., priority 2022, published 2025).
